Experimental data from the supplement of paper PMC11208160.

Assay: recombinant UMI read abundance after kanamycin selection (control-corrected) (log10(CPM+1)); higher = more efficient recombination; extreme values may be limits of the assay; sequences stand for … in AGTGCAGAGAAAATCGGCCAGTTTTCTCTGCCTGCAGTCCGCATGCCGTGGGACCCCTTGGGTTCTAACCTGTTGCCTAGATTTATGCAGCGGACTGCCTTTCTCCCAAAGTGATAAACCGG…AGGTTGGTTTCACT; site = the 11-nt donor
Method in brief: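 The measure is log10(CPM+1) for recombinant UMIs. These were PCR-amplified across the donor–target junction and sequenced after Escherichia coli carrying a donor and donor-binding-loop pair library and a target plasmid with T7-inducible IS621 bridge recombinase was plated on IPTG (0.07 mM) plus kanamycin or unselected. CPM were averaged over two replicates and scaled by control-derived factors.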
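Further: IS621 bridge recombinase in Escherichia coli cells against a fixed T5 target plasmid.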

Sequence | recombinant UMI read abundance (log10)
ATACAGCCATGGACCGGTTTTCCCGGTAATCCGTATTTGGT (site ATACAGCCTAC) | 0.00946
ATACATCCATGGACCGGTTTTCCCGGTAATCCGTATTTGAC (site AAACATCCTGT) | 0
ATACATCCATGGACCGGTTTTCCCGGTAATCCGTATTTGAC (site ACACATCCTGT) | 0
ATACATCCATGGACCGGTTTTCCCGGTAATCCGTATTTGAC (site AGACATCCTGT) | 0
ATACATCCATGGACCGGTTTTCCCGGTAATCCGTATTTGAC (site ATACATCCTGT) | 1.12
ATACGAACATGGACCGGTTTTCCCGGTAATCCGTATTTGTC (site AAACGAACTGA) | 0
ATACGAACATGGACCGGTTTTCCCGGTAATCCGTATTTGTC (site ACACGAACTGA) | 0
ATACGAACATGGACCGGTTTTCCCGGTAATCCGTATTTGTC (site AGACGAACTGA) | 0
ATACGAACATGGACCGGTTTTCCCGGTAATCCGTATTTGTC (site ATACGAACTGA) | 2.83
ATACGGACATGGACCGGTTTTCCCGGTAATCCGTATTTGAA (site ATACGGACTTT) | 1.39
ATACTATCATGGACCGGTTTTCCCGGTAATCCGTATTTGCA (site ACAGTATCTTG) | 1.72
ATACTATCATGGACCGGTTTTCCCGGTAATCCGTATTTGCA (site ATACTATCTTG) | 2.84
ATAGACCCATGGACCGGTTTTCCCGGTAATCCGTATTTGAT (site ATAGACCCTAT) | 1.21
ATAGAGACATGGACCGGTTTTCCCGGTAATCCGTATTTGGT (site ATAGAGACTAC) | 1.75
ATAGAGACATGGACCGGTTTTCCCGGTAATCCGTATTTGGT (site ATCGAGACTAC) | 0.671
ATAGAGACATGGACCGGTTTTCCCGGTAATCCGTATTTGGT (site ATGGAGACTAC) | 0.992
ATAGAGACATGGACCGGTTTTCCCGGTAATCCGTATTTGGT (site ATTGAGACTAC) | 1.03
ATAGATACATGGACCGGTTTTCCCGGTAATCCGTATTTGCC (site ATAGATACTGG) | 2.54
ATAGCCTCATGGACCGGTTTTCCCGGTAATCCGTATTTGTA (site ATAGCCTCTTA) | 2.86
ATAGCTACATGGACCGGTTTTCCCGGTAATCCGTATTTGCG (site ATAGCTACTCG) | 2.1
ATAGCTACATGGACCGGTTTTCCCGGTAATCCGTATTTGTA (site ATAGCTACTTA) | 2.3
ATAGGTACATGGACCGGTTTTCCCGGTAATCCGTATTTGAC (site ATAGGTACTGT) | 2.8
ATAGGTACATGGACCGGTTTTCCCGGTAATCCGTATTTGAC (site CTAGGTACTGT) | 1.97
ATAGGTACATGGACCGGTTTTCCCGGTAATCCGTATTTGAC (site GTAGGTACTGT) | 1.68
ATAGGTACATGGACCGGTTTTCCCGGTAATCCGTATTTGAC (site TTAGGTACTGT) | 2.15
ATAGTAGCATGGACCGGTTTTCCCGGTAATCCGTATTTGCA (site ACAGTATCTTG) | 0.993

Sequence | recombinant UMI read abundance (log10)
ATAGTAGCATGGACCGGTTTTCCCGGTAATCCGTATTTGCA (site ATAGTAGCTTG) | 3.08
ATAGTATCATGGACCGGTTTTCCCGGTAATCCGTATTTGAC (site ATAGTATCTGT) | 3.75
ATAGTATCATGGACCGGTTTTCCCGGTAATCCGTATTTGAC (site CTAGTATCTGT) | 2.94
ATAGTATCATGGACCGGTTTTCCCGGTAATCCGTATTTGAC (site GTAGTATCTGT) | 2.49
ATAGTATCATGGACCGGTTTTCCCGGTAATCCGTATTTGAC (site TTAGTATCTGT) | 2.66
ATAGTATCATGGACCGGTTTTCCCGGTAATCCGTATTTGCA (site AAAGTATCTTG) | 2.4
ATAGTATCATGGACCGGTTTTCCCGGTAATCCGTATTTGCA (site ACAGTATCTTG) | 2.34
ATAGTATCATGGACCGGTTTTCCCGGTAATCCGTATTTGCA (site AGAGTATCTTG) | 2.15
ATAGTATCATGGACCGGTTTTCCCGGTAATCCGTATTTGCA (site ATAGTATCTTG) | 3.37
ATAGTATCATGGACCGGTTTTCCCGGTAATCCGTATTTGCC (site ATAGTATCTGG) | 3.34
ATAGTATCATGGACCGGTTTTCCCGGTAATCCGTATTTGCC (site CTAGTATCTGT) | 0.756
ATATACCCATGGACCGGTTTTCCCGGTAATCCGTATTTGCG (site ATATACCCTCG) | 0.817
ATATATGCATGGACCGGTTTTCCCGGTAATCCGTATTTGCT (site ATATATGCTAG) | 2.99
ATATCACCATGGACCGGTTTTCCCGGTAATCCGTATTTGCT (site ATATCACCTAG) | 0
ATATCATCATGGACCGGTTTTCCCGGTAATCCGTATTTGCG (site ATATCATCTCG) | 2.11
ATATCTACATGGACCGGTTTTCCCGGTAATCCGTATTTGTG (site AAATCTACTCA) | 0.252
ATATCTACATGGACCGGTTTTCCCGGTAATCCGTATTTGTG (site ACATCTACTCA) | 0.246
ATATCTACATGGACCGGTTTTCCCGGTAATCCGTATTTGTG (site AGATCTACTCA) | 0.401
ATATCTACATGGACCGGTTTTCCCGGTAATCCGTATTTGTG (site ATATCTACTCA) | 0.895
ATATCTGCATGGACCGGTTTTCCCGGTAATCCGTATTTGGC (site ATATCTGCTGC) | 0.5
ATATGAACATGGACCGGTTTTCCCGGTAATCCGTATTTGTC (site ATATGAACTGA) | 2.77
ATATGTCCATGGACCGGTTTTCCCGGTAATCCGTATTTGTC (site ATATGTCCTGA) | 0.623
ATATTGTCATGGACCGGTTTTCCCGGTAATCCGTATTTGTC (site ATATTGTCTGA) | 3.25
ATCAAGGCATGGACCGGTTTTCCCGGTAATCCGTATTTGCG (site ATCAAGGCTCG) | 1.32
ATCAATACATGGACCGGTTTTCCCGGTAATCCGTATTTGAC (site ATCAATACTGT) | 1.74
ATCAATACATGGACCGGTTTTCCCGGTAATCCGTATTTGAC (site ATCCATACTGT) | 0
